Test results from ChEMBL document CHEMBL6092217 (Eur J Med Chem, 2024).

Columns and labels:
[1] = test system: MCF7; test: Antiproliferative activity against human MCF7 cells assessed as cell viability incubated for 72 hrs by MTT assay; format: functional, cell-based; settings: MCF7, 72 h
[2] = test system: PC-3; test: Antiproliferative activity against human PC-3 cells assessed as cell viability incubated for 72 hrs by MTT assay; format: functional, cell-based; settings: PC-3, 72 h
[3] = test system: RKO; test: Antiproliferative activity against human RKO cells assessed as cell viability incubated for 72 hrs by MTT assay; format: functional, cell-based
[4] = test system: HT-29; test: Antiproliferative activity against human HT-29 cells assessed as cell viability incubated for 72 hrs by MTT assay; format: functional, cell-based; settings: HT-29, 72 h
[5] = test system: MDA-MB-231; test: cells; settings: Homo sapiens, MDA-MB-231, 72 h
Description: Antiproliferative activity against human MDA-MB-231 cells assessed as cell viability incubated for 72 hrs by MTT assay

[6] = test system: HepG2; test: Antiproliferative activity against human HepG2 cells assessed as cell viability incubated for 72 hrs by MTT assay; format: functional, cell-based; settings: HepG2, 72 h

SMILES	IC50 [1] [nM]	IC50 [2] [nM]	IC50 [3] [nM]	IC50 [4] [nM]	IC50 [5] [nM]	IC50 [6] [nM]
COc1ccc(N(C)c2nc(/C=C/c3ccccc3OC)nc3ccccc23)cc1	> 10000	740	> 10000	8160	> 10000	> 10000
CN(c1ccc2occc2c1)c1nc(/C=C/c2ccccc2)nc2ccccc12	2560	7410	1590	2840	6570	4000
O=c1[nH]cc(F)c(=O)[nH]1 [FLUOROURACIL]	> 10000	> 10000	> 10000	> 10000	> 10000	> 10000
COc1ccc(N(C)c2nc(/C=C/c3cccc(Cl)c3)nc3ccccc23)cc1	1060	2180	1370	710	4170	1730
COc1ccc(OC)c(N(C)c2nc(/C=C/c3ccccc3)nc3ccccc23)c1	> 10000	> 10000	> 10000	> 10000	> 10000	> 10000
COc1cc(N(C)c2nc(/C=C/c3ccccc3)nc3ccccc23)cc(OC)c1OC	> 10000	> 10000	> 10000	> 10000	> 10000	> 10000
COc1ccc(N(C)c2nc(/C=C/c3ccc([N+](=O)[O-])cc3)nc3ccccc23)cc1	5610	2850	4270	3240	9480	7010
COc1ccc(N(C)c2nc(/C=C/c3ccc(Cl)cc3)nc3ccccc23)cc1	610	620	460	310	830	940
CN(c1ccc(OC(F)(F)F)cc1)c1nc(/C=C/c2ccccc2)nc2ccccc12	> 10000	> 10000	> 10000	> 10000	> 10000	> 10000
COc1ccc(N(C)c2nc(/C=C/c3cccc(Cl)c3Cl)nc3ccccc23)cc1	> 10000	2990	5750	1420	> 10000	> 10000
COc1ccc(N(C)c2nc(/C=C/c3ccc(C)cc3)nc3ccccc23)cc1	3110	460	1710	460	2560	3010
COc1ccc(N(C)c2nc(/C=C/c3cccc(F)c3)nc3ccc(F)cc23)cc1	340	360	620	460	2520	730
COc1ccc(N(C)c2nc(/C=C/c3ccccc3)nc3ccccc23)cc1OC	2050	2850	630	540	7030	2840
CN(c1ccc(C(F)(F)F)cc1)c1nc(/C=C/c2ccccc2)nc2ccccc12	> 10000	> 10000	> 10000	> 10000	> 10000	> 10000
COc1ccc(N(C)c2nc(/C=C/c3cccc(F)c3)nc3cccc(F)c23)cc1	390	400	220	210	430	490
COc1ccc(N(C)c2nc(/C=C/c3ccc(OC)c(OC)c3)nc3ccccc23)cc1	3500	1460	2730	2010	7240	2740
COc1ccc(N(C)c2nc(/C=C/c3cccc(F)c3)nc3cccnc23)cc1	1180	330	510	200	2880	680

SMILES	IC50 [1] [nM]	IC50 [2] [nM]	IC50 [3] [nM]	IC50 [4] [nM]	IC50 [5] [nM]	IC50 [6] [nM]
COc1ccc(N(C)c2nc(/C=C/c3cccc(OC)c3)nc3cccc(F)c23)cc1	460	360	150	240	800	410
COc1ccc(N(C)c2nc(/C=C/c3cc(OC)c(OC)c(OC)c3)nc3ccccc23)cc1	> 10000	8340	> 10000	> 10000	> 10000	> 10000
CN(c1ccccc1)c1nc(/C=C/c2ccccc2)nc2ccccc12	> 10000	> 10000	> 10000	> 10000	> 10000	> 10000
COc1ccc(N(C)c2nc(/C=C/c3cccc(OC)c3OC)nc3ccccc23)cc1	4090	1100	1340	880	5060	4820
COc1ccc(N(C)c2nc(/C=C/c3cccc(F)c3)nc3ccccc23)cc1	260	90	170	160	1250	240
COc1ccc(N(C)c2nc(/C=C/c3ccc(OC)c(OC)c3OC)nc3ccccc23)cc1	410	490	220	170	600	530
COc1ccc(N(C)c2nc(C)nc3ccccc23)cc1 [VERUBULIN]	14	10	9	7	23	13
CN(c1ccc2c(c1)OCO2)c1nc(/C=C/c2ccccc2)nc2ccccc12	1640	1070	720	2790	3680	1140
COc1ccc(N(C)c2nc(/C=C/c3ccccc3)nc3ccccc23)c(OC)c1	1900	2750	650	750	5730	8220
COc1ccc(N(C)c2nc(/C=C/c3cccc([N+](=O)[O-])c3)nc3ccccc23)cc1	1470	410	490	300	810	540
CN(c1ccc(F)cc1)c1nc(/C=C/c2ccccc2)nc2ccccc12	1080	1110	540	530	2850	910
COc1ccc(N(C)c2nc(/C=C/c3ccc(Cl)cc3Cl)nc3ccccc23)cc1	> 10000	1450	1760	4750	> 10000	> 10000
COc1cc(OC)cc(N(C)c2nc(/C=C/c3ccccc3)nc3ccccc23)c1	> 10000	> 10000	> 10000	> 10000	> 10000	> 10000
COc1cccc(OC)c1N(C)c1nc(/C=C/c2ccccc2)nc2ccccc12	> 10000	> 10000	> 10000	> 10000	> 10000	> 10000
COc1ccc(N(C)c2nc(/C=C/c3cccc(OC)c3)nc3ccc(F)cc23)cc1	800	650	240	280	1060	360
COc1ccc(/C=C/c2nc(N(C)c3ccc(OC)cc3)c3ccccc3n2)cc1	3660	2750	940	890	1800	4480
